Assay results as given in patent US12606543B2, “Indole derivatives as serotonergic agents useful for the treatment of disorders related thereto” (priority 2023, dated 2026).

Columns and labels:
Format in all cases: in vitro ADME
[1] = Liver microsomes stability, rat; conditions: for CLint / T1/2: 2 μM, 0.5 mg/mL, NADPH
Description: (§1) The objective of this study was to estimate in vitro metabolic stability of exemplary compounds of Formula (I) or a pharmaceutically acceptable salt, solvate, and/or prodrug thereof in pooled human, male rat, and male mouse liver microsomes. The concentrations of compounds in reaction systems were evaluated by LC-MS/MS for estimating the stability in pooled human, male rat, and male mouse liver microsomes. The in vitro intrinsic clearances of test compounds were determined as well.
(§2) A master solution in the “Incubation Plate” containing phosphate buffer, ultra-pure H2O, MgCl2 solution and liver microsomes was made according to Table 33. The mixture was pre-warmed at 37° C. water bath for 5 minutes.
(§3) 40 μL of 10 mM nicotinamide adenine dinucleotide phosphate (NADPH) solution was added to each well. The final concentration of NADPH was 1 mM. The negative control samples were prepared by replacing NADPH with 40 μL of ultra-pure H2O. Samples were prepared in duplicate. Negative controls were prepared in singlet.
(§4) The reaction was started with the addition of 4 μL of 200 μM exemplary test compounds of the disclosure or control compounds to each master solution to get the final concentration of 2 μM. This study was performed in duplicate.
(§5) Aliquots of 50 μL were taken from the reaction solution at 0, 15, 30, 45, and 60 minutes. The reaction solutions were stopped by the addition of 4 volumes of cold methanol with IS (100 nM alprazolam, 200 nM imipramine, 200 nM labetalol, and 2 μM ketoprofen). Samples were centrifuged at 3,220 g for 40 minutes. Aliquot of 90 μL of the supernatant was mixed with 90 μL of ultra-pure H2O and then was used for LC-MS/MS analysis.
(§6) LC/MS analysis was performed for all samples from this study using a Shimadzu liquid chromatograph separation system equipped with degasser DGU-20A5R; solvent delivery unit LC-30AD; system controller SIL-30AC; column oven CTO-30A; CTC Analytics HTC PAL System. Mass spectrometric analysis was performed using a Triple Quad™ 5500 instrument.
(§7) All calculations were carried out using Microsoft Excel. Peak area ratios of test compound to internal standard (listed in the below table) were determined from extracted ion chromatograms.
(§8) All calculations were carried out using Microsoft Excel. Peak areas were determined from extracted ion chromatograms. The slope value, k, was determined by linear regression of the natural logarithm of the remaining percentage of the parent drug vs. incubation time curve.
(§9) The in vitro half-life (in vitro t1/2) was determined from the slope value:
(§10) Conversion of the in vitro t1/2 (min) into the in vitro intrinsic clearance (in vitro CLint, in μL/min/mg proteins) was done using the following equation (mean of duplicate determinations): […]
as §1, with “solvate” for “solvate,”, “rat” for “rat,”
(§11) A master solution in the “Incubation Plate” containing phosphate buffer, ultra-pure H2O, MgCl2 solution and liver microsomes was made according to Table 67. The mixture was pre-warmed at 37° C. water bath for 5 minutes.
(§12) 40 μL of 10 mM NADPH solution was added to each well. The final concentration of NADPH was 1 mM. The negative control samples were prepared by replacing NADPH with 40 μL of ultra-pure H2O. Samples were prepared in duplicate. Negative controls were prepared in singlet
(§13) Aliquots of 50 μL were taken from the reaction solution at 0, 15, 30, 45 and 60 minutes. The reaction solutions were stopped by the addition of 4 volumes of cold methanol with IS (100 nM alprazolam, 200 nM imipramine, 200 nM labetalol and 2 μM ketoprofen). […]

[2] = Liver microsomes stability, human
Description: as §1, §2, §3, §4, §5, §6, §7, §8, §9, §10
as §1, with “solvate” for “solvate,”, “rat” for “rat,”
as §11, §12
Aliquots of 50 μL were taken from the reaction solution at 0, 15, 30, 45 and 60 minutes. The reaction solutions were stopped by the addition of 4 volumes of cold methanol with IS (100 nM alprazolam, 200 nM imipramine, 200 nM labetalol and 2 μM ketoprofen).

[3] = Liver microsomes stability, mouse; conditions: for T1/2: <4.51 if % remaining at 30 min below 1%
Description: as §1, §2, §3, §4, §5, §6, §7, §8, §9, §10
as §1, with “solvate” for “solvate,”, “rat” for “rat,”
as §11, §12, §13

[4] = Rat liver microsomes, With Cofactors, 0 min
[5] = Rat liver microsomes, With Cofactors, 30 min
[6] = Rat liver microsomes, With Cofactors, 60 min
[7] = Rat liver microsomes, Without Cofactors, 0 min
[8] = Rat liver microsomes, Without Cofactors, 30 min
[9] = Rat liver microsomes, Without Cofactors, 60 min
[10] = rat liver microsomes, With Cofactors, 0 min
[11] = rat liver microsomes, With Cofactors, 30 min
[12] = rat liver microsomes, With Cofactors, 60 min
[13] = rat liver microsomes, Without Cofactors, 0 min
[14] = rat liver microsomes, Without Cofactors, 30 min
[15] = rat liver microsomes, Without Cofactors, 60 min
[16] = human liver microsomes, With Cofactors, 0 min
[17] = human liver microsomes, With Cofactors, 30 min
[18] = human liver microsomes, With Cofactors, 60 min
[19] = human liver microsomes, Without Cofactors, 0 min
[20] = human liver microsomes, Without Cofactors, 30 min
[21] = human liver microsomes, Without Cofactors, 60 min
[22] = Mouse liver microsomes, 2 μM, 0.5 mg/mL, NADPH
[23] = mouse liver microsomes, With Cofactors, 0 min
[24] = mouse liver microsomes, With Cofactors, 30 min
[25] = mouse liver microsomes, With Cofactors, 60 min
[26] = mouse liver microsomes, Without Cofactors, 0 min
[27] = mouse liver microsomes, Without Cofactors, 30 min
[28] = mouse liver microsomes, Without Cofactors, 60 min
[29] = Human liver microsomes, 2 μM, 0.5 mg/mL, NADPH

O=C(O)Cc1ccccc1Nc1c(Cl)cccc1Cl [Diclofenac]
Predicted hepatic CL ([1]; Rat liver microsomes): 2.475 L/h/kg | Scaled-up CLint ([1]; Rat liver microsomes): 9.7896 L/h/kg | CLint ([1]; Rat liver microsomes): 91.05 μL/min/mg protein | T1/2 ([1]; Rat liver microsomes): 15.22 min | Remaining Percentage (%) 0 min [1, 4]: 100.00% | Remaining Percentage (%) 30 min [1, 5]: 11.86% | Remaining Percentage (%) 60 min [1, 6]: 6.35% | Remaining Percentage (%) 0 min [1, 7]: 100.00% | Remaining Percentage (%) 30 min [1, 8]: 102.19% | Remaining Percentage (%) 60 min [1, 9]: 100.63% | Predicted hepatic CL ([1]; rat liver microsomes): 2.473 L/h/kg | Scaled-up CLint ([1]; rat liver microsomes): 9.7614 L/h/kg | Remaining Percentage [1, 10]: 100.00% | Remaining Percentage [1, 11]: 11.86% | Remaining Percentage [1, 12]: 6.35% | Remaining Percentage [1, 13]: 100.00% | Remaining Percentage [1, 14]: 102.19% | Remaining Percentage [1, 15]: 100.63% | Predicted hepatic CL ([2]; Human liver microsomes): 1.101 L/h/kg | Scaled-up CLint ([2]; Human liver microsomes): 9.7164 L/h/kg | Predicted hepatic CL ([2]; human liver microsomes): 1.103 L/h/kg | Scaled-up CLint ([2]; human liver microsomes): 9.8508 L/h/kg | Remaining Percentage [2, 16]: 100.00% | Remaining Percentage (%) 0 min [2, 16]: 100.00% | Remaining Percentage [2, 17]: 5.01% | Remaining Percentage (%) 30 min [2, 17]: 5.01% | Remaining Percentage [2, 18]: 1.77% | Remaining Percentage (%) 60 min [2, 18]: 1.77% | Remaining Percentage [2, 19]: 100.00% | Remaining Percentage (%) 0 min [2, 19]: 100.00% | Remaining Percentage [2, 20]: 112.67% | Remaining Percentage (%) 30 min [2, 20]: 112.67% | Remaining Percentage [2, 21]: 96.67% | Remaining Percentage (%) 60 min [2, 21]: 96.67% | Predicted hepatic CL ([3]; Mouse liver microsomes): 3.287 L/h/kg | Scaled-up CLint ([3]; Mouse liver microsomes): 8.4 L/h/kg | T1/2 [3, 22]: 43.31 min | Predicted hepatic CL ([3]; mouse liver microsomes): 3.367 L/h/kg | Scaled-up CLint ([3]; mouse liver microsomes): 8.9418 L/h/kg | CLint ([3]; mouse liver microsomes, 2 μM compound, 0.5 mg/mL microsomes): 34.06 μL/min/mg protein | Remaining Percentage [3, 23]: 100.00% | Remaining Percentage (%) 0 min [3, 23]: 100.00% | Remaining Percentage [3, 24]: 45.55% | Remaining Percentage (%) 30 min [3, 24]: 45.55% | Remaining Percentage [3, 25]: 33.71% | Remaining Percentage (%) 60 min [3, 25]: 33.71% | Remaining Percentage [3, 26]: 100.00% | Remaining Percentage (%) 0 min [3, 26]: 100.00% | Remaining Percentage [3, 27]: 89.49% | Remaining Percentage (%) 30 min [3, 27]: 89.49% | Remaining Percentage [3, 28]: 96.59% | Remaining Percentage (%) 60 min [3, 28]: 96.59%

COc1ccc2[nH]cc(CCN(C)C)c2c1 [5-MeO-DMT]
Predicted hepatic CL ([1]; Rat liver microsomes): 2.941 L/h/kg | Scaled-up CLint ([1]; Rat liver microsomes): 26.254 L/h/kg | CLint ([1]; Rat liver microsomes): 244.17 μL/min/mg protein | T1/2 ([1]; Rat liver microsomes): 5.68 min | Remaining Percentage (%) 0 min [1, 4]: 100.00% | Remaining Percentage (%) 30 min [1, 5]: 2.57% | Remaining Percentage (%) 60 min [1, 6]: 0.36% | Remaining Percentage (%) 0 min [1, 7]: 100.00% | Remaining Percentage (%) 30 min [1, 8]: 49.55% | Remaining Percentage (%) 60 min [1, 9]: 23.82% | Remaining Percentage [1, 10]: 100.00% | Remaining Percentage [1, 11]: 2.57% | Remaining Percentage [1, 12]: 0.36% | Remaining Percentage [1, 13]: 100.00% | Remaining Percentage [1, 14]: 49.55% | Remaining Percentage [1, 15]: 23.82% | Predicted hepatic CL ([2]; Human liver microsomes): 1.085 L/h/kg | Scaled-up CLint ([2]; Human liver microsomes): 8.5932 L/h/kg | CLint [2, 29]: 114.19 μL/min/mg protein | T1/2 [2, 29]: 12.14 min | Remaining Percentage [2, 16]: 100.00% | Remaining Percentage (%) 0 min [2, 16]: 100.00% | Remaining Percentage [2, 17]: 19.24% | Remaining Percentage (%) 30 min [2, 17]: 19.24% | Remaining Percentage [2, 18]: 3.25% | Remaining Percentage (%) 60 min [2, 18]: 3.25% | Remaining Percentage [2, 19]: 100.00% | Remaining Percentage (%) 0 min [2, 19]: 100.00% | Remaining Percentage [2, 20]: 18.58% | Remaining Percentage (%) 30 min [2, 20]: 18.58% | Remaining Percentage [2, 21]: 3.00% | Remaining Percentage (%) 60 min [2, 21]: 3.00% | Predicted hepatic CL ([3]; Mouse liver microsomes): 3.251 L/h/kg | Scaled-up CLint ([3]; Mouse liver microsomes): 8.1726 L/h/kg | T1/2 [3, 22]: 44.52 min | CLint ([3]; Mouse liver microsomes, 2 μM, 0.5 mg/mL, NADPH, >307.01 if % remaining at 30 min below 1%): 31.13 μL/min/mg protein | Remaining Percentage [3, 23]: 100.00% | Remaining Percentage (%) 0 min [3, 23]: 100.00% | Remaining Percentage [3, 24]: 61.84% | Remaining Percentage (%) 30 min [3, 24]: 61.84% | Remaining Percentage [3, 25]: 39.30% | Remaining Percentage (%) 60 min [3, 25]: 39.30% | Remaining Percentage [3, 26]: 100.00% | Remaining Percentage (%) 0 min [3, 26]: 100.00% | Remaining Percentage [3, 27]: 104.76% | Remaining Percentage (%) 30 min [3, 27]: 104.76% | Remaining Percentage [3, 28]: 95.24% | Remaining Percentage (%) 60 min [3, 28]: 95.24%
